Data taken from patent publication EP0497314A1, “Use of azapirones in attention deficit hyperactivity disorder” (Bristol-Myers Squibb Company, priority 1991, dated 1992).
Marks after values point to notes of the source that are not given here.

What was measured:
rabbit cortex = assay: Quantitative EEG, rabbit cortex, intravenous administration; format: in vivo, rabbits; conditions: rabbit, in vivo
Procedure: At least 2 weeks were allowed for recovery before beginning experimentation.
Groups of four animals each were individually restrained and connected to an EEG amplifier and frequency analyzer. The EEG of each animal was recorded on a separate channel. The instrumentation filtered each channel of EEG analog data into five distinct frequency bands: Δ=0.5-3.5 Hz, ϑ=3.5-7.0 Hz, α=7-13 Hz, β=13-25 Hz and γ=25-40 Hz. The EEG analyzer then integrated the filtered waveforms and sent pulses to an associated computer at a rate proportional to the electrical energy of each band. Thus, one computer print-out provided a cortical EEG profile for the entire group of four rabbits.
Data from a one-hour recording period were collected in four 15-minute periods, which provided additional information concerning both onset and time of peak effect of drug activity. However, in this report only the mean activity of the four data collection periods was considered since onset of drug activity was immediate and duration of action was at least one hour for all drugs studied. Drug-induced EEG changes were determined by comparing the post-treatment print-out to the pretreatment control in the same animal and statistical analysis was performed on change from control, in counts, using multiple Student-t paired-comparison tests with p≦0.05 (Table 1). However, for clarity data are also presented as percent change from control (Figures 1 and 2).
All drugs were administered intravenously in saline solution as their respective salts and all dosage calculations were based on the free base. Recording was started immediately after injection and animals were not used more often than once per week. Initial doses were reduced geometrically until a no-effect dose was determined for each drug. However, only the "no-effect" data and the data generated from the next higher dose are presented in this report since the shape of the EEG profile is not dose-related, as opposed to the magnitude of the response which is dose-related.

[1] = test system: fronto-occipital cortex of the cat; assay: Quantitative EEG, fronto-occipital cat cortex, subcutaneous administration; format: in vivo, cats; conditions: in vivo
From the text: This unique combination of activity may render buspirone useful in the treatment of childhood hyperkinesis which has been reported to respond to both selected phenothiazine and stimulant drugs. • (b) Adult mongrel female cats weighing 2.5-4.0 kg were implanted with EEG recording electrodes. Recording sites were as follows: fronto-occipital cortex, basal amygdala and ventral hippocampus.
Animals were individually held in canvas feline restraining bags for EEG recording. The EEG of each brain area was recorded on a separate channel. The instrumentation filtered each channel of EEG and analog data into five distinct frequency bands: Δ=0.5-3.5 Hz, ϑ=3.5-7.0 Hz, α=7-13 Hz, β=13-25 Hz and γ=25-40 Hz. The EEG analyzer then integrated the filtered waveforms and sent pulses to an associated computer at a rate proportional to the electrical energy of each band. Data collecting procedures were essentially the same as reported in Example 1. However, groups of six animals each were used and all drugs were administered subcutaneously in saline solution as their respective salts, but all dosages were calculated as the free base. Recording was started 30 minutes after injection to insure adequate drug absorption for peak activity.
Drug-induced EEG changes were determined by comparing the post-treatment data to the pre-treatment control in the same animal. Statistical analysis was performed on change from control, in instrument counts, using multiple Student-t-paired-comparison test with P≦0.05 (Table 2). However, for clarity data are also presented as percent change from control (Figures 3, 4 and 5).
The data in Table 2 are drug-induced changes resulting from the minimum and higher doses of each compound required to elicit the EEG profile characteristic of that particular drug.

SMILES: C[C@H](N)Cc1ccccc1 [Dextroamphetamine 1/2H2SO4, dextroamphetamine]
- the minimum dose required to produce the EEG profile characteristic of that particular drug (rabbit cortex): 0.25‡ mg/kg, i.v.
- the no-effect dose (rabbit cortex): 0.125† mg/kg, i.v.
- relative potency by comparing minimal doses required to elicit EEG profiles (rabbit cortex; iv): approximately twice as potent as buspirone
- group percent change in electrical energy from pre-drug control, Δ band (rabbit cortex; iv, 0.125 mg/kg): +4 ± 17 (+2) percent
- group percent change in electrical energy from pre-drug control, α band (rabbit cortex; iv, 0.125 mg/kg): 0 ± 9 (0) percent
- group percent change in electrical energy from pre-drug control, β band (rabbit cortex; iv, 0.125 mg/kg): +2 ± 6 (+1) percent
- group percent change in electrical energy from pre-drug control, γ band (rabbit cortex; iv, 0.125 mg/kg): +1 ± 1 (+1) percent
- group percent change in electrical energy from pre-drug control, θ band (rabbit cortex; iv, 0.125 mg/kg): -9 ± 6 (-5) percent
- mean change ± S.E. in electrical energy from pre-drug control, Δ band (rabbit cortex; iv, 0.125 mg/kg): +4 ± 17 (+2) instrument counts
- mean change ± S.E. in electrical energy from pre-drug control, α band (rabbit cortex; iv, 0.125 mg/kg): 0 ± 9 (0) instrument counts
- mean change ± S.E. in electrical energy from pre-drug control, β band (rabbit cortex; iv, 0.125 mg/kg): +2 ± 6 (+1) instrument counts
- mean change ± S.E. in electrical energy from pre-drug control, γ band (rabbit cortex; iv, 0.125 mg/kg): +1 ± 1 (+1) instrument counts
- mean change ± S.E. in electrical energy from pre-drug control, θ band (rabbit cortex; iv, 0.125 mg/kg): -9 ± 6 (-5) instrument counts
- group percent change in electrical energy from pre-drug control, α band (rabbit cortex; iv, 0.25 mg/kg): +27 ± 9 (-22) percent
- group percent change in electrical energy from pre-drug control, β band (rabbit cortex; iv, 0.25 mg/kg): -21 ± 6 (-20) percent
- group percent change in electrical energy from pre-drug control, γ band (rabbit cortex; iv, 0.25 mg/kg): -4 ± 1 (-5) percent
- group percent change in electrical energy from pre-drug control, θ band (rabbit cortex; iv, 0.25 mg/kg): -35 ± 9 (-25) percent
- mean change ± S.E. in electrical energy from pre-drug control, Δ band (rabbit cortex; iv, 0.25 mg/kg): -64 ± 19 (-33) instrument counts
- mean change ± S.E. in electrical energy from pre-drug control, β band (rabbit cortex; iv, 0.25 mg/kg): -21 ± 6 (-20) instrument counts
- mean change ± S.E. in electrical energy from pre-drug control, γ band (rabbit cortex; iv, 0.25 mg/kg): -4 ± 1 (-5) instrument counts
- mean change ± S.E. in electrical energy from pre-drug control, θ band (rabbit cortex; iv, 0.25 mg/kg): -35 ± 9 (-25) instrument counts
- the minimum dose required to produce the EEG profile characteristic of that particular drug [1]: 0.125‡ mg/kg, s.c.
- the no-effect dose [1]: 0.0625† mg/kg, s.c.
- relative potency by comparing minimal doses required to elicit EEG profiles ([1]; sc): approximately twice as potent as buspirone and methylphenidate
- group percent change in electrical energy from pre-drug control, Δ band ([1]; sc, 0.0625 mg/kg): -18 ± 6 (-8) percent
- group percent change in electrical energy from pre-drug control, α band ([1]; sc, 0.0625 mg/kg): -12 ± 8 (-8) percent
- group percent change in electrical energy from pre-drug control, β band ([1]; sc, 0.0625 mg/kg): +1 ± 5 (+1) percent
- group percent change in electrical energy from pre-drug control, γ band ([1]; sc, 0.0625 mg/kg): +2 ± 3 (+2) percent
- group percent change in electrical energy from pre-drug control, θ band ([1]; sc, 0.0625 mg/kg): -15 ± 7 (-10) percent
- mean change ± S.E. in electrical energy from pre-drug control, Δ band ([1]; sc, 0.0625 mg/kg): -18 ± 6 (-8) instrument counts
- mean change ± S.E. in electrical energy from pre-drug control, α band ([1]; sc, 0.0625 mg/kg): -12 ± 8 (-8) instrument counts
- mean change ± S.E. in electrical energy from pre-drug control, β band ([1]; sc, 0.0625 mg/kg): +1 ± 5 (+1) instrument counts
- mean change ± S.E. in electrical energy from pre-drug control, γ band ([1]; sc, 0.0625 mg/kg): +2 ± 3 (+2) instrument counts
- mean change ± S.E. in electrical energy from pre-drug control, θ band ([1]; sc, 0.0625 mg/kg): -15 ± 7 (-10) instrument counts
- group percent change in electrical energy from pre-drug control, Δ band ([1]; sc, 0.125 mg/kg): -85 ± 21 (-35) percent
- group percent change in electrical energy from pre-drug control, α band ([1]; sc, 0.125 mg/kg): -29 ± 9 (-26) percent
- group percent change in electrical energy from pre-drug control, β band ([1]; sc, 0.125 mg/kg): -3 ± 4 (-3) percent
- group percent change in electrical energy from pre-drug control, γ band ([1]; sc, 0.125 mg/kg): +8 ± 2 (+12) percent
- group percent change in electrical energy from pre-drug control, θ band ([1]; sc, 0.125 mg/kg): -44 ± 8 (-33) percent
- mean change ± S.E. in electrical energy from pre-drug control, Δ band ([1]; sc, 0.125 mg/kg): -85 ± 21 (-35) instrument counts
- mean change ± S.E. in electrical energy from pre-drug control, α band ([1]; sc, 0.125 mg/kg): -29 ± 9 (-26) instrument counts
- mean change ± S.E. in electrical energy from pre-drug control, β band ([1]; sc, 0.125 mg/kg): -3 ± 4 (-3) instrument counts
- mean change ± S.E. in electrical energy from pre-drug control, γ band ([1]; sc, 0.125 mg/kg): +8 ± 2 (+12) instrument counts
- mean change ± S.E. in electrical energy from pre-drug control, θ band ([1]; sc, 0.125 mg/kg): -44 ± 8 (-33) instrument counts
- group percent change in electrical energy from pre-drug control, Δ band ([1]; sc, 0.5 mg/kg): -78 ± 32 (-33) percent
- group percent change in electrical energy from pre-drug control, α band ([1]; sc, 0.5 mg/kg): -71 ± 11 (-51) percent
- group percent change in electrical energy from pre-drug control, β band ([1]; sc, 0.5 mg/kg): -18 ± 9 (-15) percent
- group percent change in electrical energy from pre-drug control, γ band ([1]; sc, 0.5 mg/kg): +18 ± 4 (+25) percent
- group percent change in electrical energy from pre-drug control, θ band ([1]; sc, 0.5 mg/kg): -76 ± 13 (-51) percent
- mean change ± S.E. in electrical energy from pre-drug control, Δ band ([1]; sc, 0.5 mg/kg): -78 ± 32 (-33) instrument counts
- mean change ± S.E. in electrical energy from pre-drug control, α band ([1]; sc, 0.5 mg/kg): -71 ± 11 (-51) instrument counts
- mean change ± S.E. in electrical energy from pre-drug control, β band ([1]; sc, 0.5 mg/kg): -18 ± 9 (-15) instrument counts
- mean change ± S.E. in electrical energy from pre-drug control, γ band ([1]; sc, 0.5 mg/kg): +18 ± 4 (+25) instrument counts
- mean change ± S.E. in electrical energy from pre-drug control, θ band ([1]; sc, 0.5 mg/kg): -76 ± 13 (-51) instrument counts
- group percent change in electrical energy from pre-drug control, Δ band ([1]; sc, 4 mg/kg): +64 ± 27 (+29) percent
- group percent change in electrical energy from pre-drug control, α band ([1]; sc, 4 mg/kg): -44 ± 13 (-35) percent
- group percent change in electrical energy from pre-drug control, β band ([1]; sc, 4 mg/kg): -6 ± 9 (-5) percent
- group percent change in electrical energy from pre-drug control, γ band ([1]; sc, 4 mg/kg): +50 ± 8 (+63) percent
- group percent change in electrical energy from pre-drug control, θ band ([1]; sc, 4 mg/kg): -34 ± 13 (-24) percent
- mean change ± S.E. in electrical energy from pre-drug control, Δ band ([1]; sc, 4 mg/kg): +64 ± 27 (+29) instrument counts
- mean change ± S.E. in electrical energy from pre-drug control, α band ([1]; sc, 4 mg/kg): -44 ± 13 (-35) instrument counts
- mean change ± S.E. in electrical energy from pre-drug control, β band ([1]; sc, 4 mg/kg): -6 ± 9 (-5) instrument counts
- mean change ± S.E. in electrical energy from pre-drug control, γ band ([1]; sc, 4 mg/kg): +50 ± 8 (+63) instrument counts
- mean change ± S.E. in electrical energy from pre-drug control, θ band ([1]; sc, 4 mg/kg): -34 ± 13 (-24) instrument counts
